In PubChem BioAssay (NCI):
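Five compound concentrations were applied to cells in 96-well plates for 48 hours; endpoints were derived by simple linear interpolation of the resulting dose-response curve. TGI: total growth inhibition.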

Columns and labels:
Test in all cases: DTP human tumour cell line panel, 48 h
UO-31 renal = test system: UO-31 renal
SK-OV-3 ovarian = test system: SK-OV-3 ovarian
ACHN renal = test system: ACHN renal
IGROV1 ovarian = test system: IGROV1 ovarian
CAKI-1 renal = test system: CAKI-1 renal
RPMI-8226 leukemia = test system: RPMI-8226 leukemia
HCC-2998 colon = test system: HCC-2998 colon
SR leukemia = test system: SR leukemia
SK-MEL-28 melanoma = test system: SK-MEL-28 melanoma
U251 CNS = test system: U251 CNS

O=C1C(=Cc2ccccc2[N+](=O)[O-])N=C(c2ccccc2)N1n1c(-c2ccccc2)nc2ccccc2c1=O
TGI (UO-31 renal): > 100 µM
TGI (SK-OV-3 ovarian): > 100 µM
TGI (ACHN renal): > 100 µM
TGI (IGROV1 ovarian): > 100 µM
TGI (CAKI-1 renal): > 100 µM
TGI (RPMI-8226 leukemia): 66.6 µM
TGI (HCC-2998 colon): > 100 µM
TGI (SR leukemia): > 100 µM
TGI (SK-MEL-28 melanoma): > 100 µM
TGI (U251 CNS): > 100 µM

Cc1cc(C)c2c(c1)CC1(Cc3c(C)cc(C)cc3C1=O)C2=O (stereo not given)
TGI (UO-31 renal): > 100 µM
TGI (ACHN renal): > 100 µM
TGI (IGROV1 ovarian): > 100 µM
TGI (CAKI-1 renal): > 100 µM
TGI (RPMI-8226 leukemia): > 100 µM
TGI (HCC-2998 colon): > 100 µM
TGI (SR leukemia): > 100 µM
TGI (SK-MEL-28 melanoma): > 100 µM
TGI (U251 CNS): > 100 µM

O=C(Nc1nc(C23CC4CC(CC(C4)C2)C3)cs1)c1cc2cc([N+](=O)[O-])ccc2oc1=O
TGI (UO-31 renal): > 100 µM
TGI (ACHN renal): > 100 µM
TGI (IGROV1 ovarian): > 100 µM
TGI (CAKI-1 renal): > 100 µM
TGI (RPMI-8226 leukemia): > 100 µM
TGI (HCC-2998 colon): > 100 µM
TGI (SR leukemia): > 100 µM
TGI (SK-MEL-28 melanoma): > 100 µM
TGI (U251 CNS): > 100 µM

COC(=O)C1[C@H](C(=O)OC)C1(Br)CBr (stereo not given in full)
TGI (UO-31 renal): > 100 µM
TGI (SK-OV-3 ovarian): > 100 µM
TGI (ACHN renal): > 100 µM
TGI (IGROV1 ovarian): > 100 µM
TGI (CAKI-1 renal): > 100 µM
TGI (RPMI-8226 leukemia): > 100 µM
TGI (HCC-2998 colon): > 100 µM
TGI (SR leukemia): > 100 µM
TGI (SK-MEL-28 melanoma): > 100 µM
TGI (U251 CNS): > 100 µM

C=C1C(=O)O[C@H]2C/C(C=O)=C\[C@H]3O[C@H]3/C(COC(=O)C(C)C)=C/CC12 (stereo not given in full)
TGI (UO-31 renal): 18 µM
TGI (ACHN renal): 6.59 µM
TGI (IGROV1 ovarian): 18.5 µM
TGI (CAKI-1 renal): 7.31 µM
TGI (RPMI-8226 leukemia): 7.61 µM
TGI (HCC-2998 colon): 27.2 µM
TGI (SR leukemia): 7.95 µM
TGI (SK-MEL-28 melanoma): 14.8 µM
TGI (U251 CNS): 19.6 µM

C/C(=C\CNc1nc(Cl)nc2nc[nH]c12)CO
TGI (UO-31 renal): > 100 µM
TGI (SK-OV-3 ovarian): > 100 µM
TGI (ACHN renal): > 100 µM
TGI (IGROV1 ovarian): > 100 µM
TGI (CAKI-1 renal): > 100 µM
TGI (RPMI-8226 leukemia): > 100 µM
TGI (HCC-2998 colon): > 100 µM
TGI (SR leukemia): > 100 µM
TGI (SK-MEL-28 melanoma): > 100 µM

CC(=O)Nc1ccc(/C=C(\NC(=O)c2ccccc2)C(=O)NNS(=O)(=O)c2ccc(C)cc2)cc1
TGI (UO-31 renal): > 100 µM
TGI (SK-OV-3 ovarian): > 100 µM
TGI (ACHN renal): > 100 µM
TGI (IGROV1 ovarian): > 100 µM
TGI (CAKI-1 renal): > 100 µM
TGI (RPMI-8226 leukemia): 49 µM
TGI (HCC-2998 colon): > 100 µM
TGI (SR leukemia): 37.8 µM
TGI (SK-MEL-28 melanoma): > 100 µM
TGI (U251 CNS): > 100 µM

CCCCCCCCC[n+]1cccc(C2C(C(=O)OCC)=C(C)NC(C)=C2C(=O)OCC)c1
TGI (UO-31 renal): 31.6 µM
TGI (SK-OV-3 ovarian): 26.5 µM
TGI (ACHN renal): 28.5 µM
TGI (IGROV1 ovarian): 5.47 µM
TGI (CAKI-1 renal): 28.2 µM
TGI (RPMI-8226 leukemia): 5.28 µM
TGI (HCC-2998 colon): 21.1 µM
TGI (SR leukemia): > 25.3 µM
TGI (SK-MEL-28 melanoma): 7.28 µM
TGI (U251 CNS): 12.6 µM

O=C(NCc1ccccc1)c1c(O)c2ccccc2[nH]c1=O
TGI (UO-31 renal): > 100 µM
TGI (ACHN renal): > 100 µM
TGI (IGROV1 ovarian): > 100 µM
TGI (CAKI-1 renal): > 100 µM
TGI (RPMI-8226 leukemia): > 100 µM
TGI (HCC-2998 colon): > 100 µM
TGI (SR leukemia): > 100 µM
TGI (SK-MEL-28 melanoma): > 100 µM
TGI (U251 CNS): > 100 µM

CCCC(=O)OC1CC(n2cc(F)c(=O)[nH]c2=O)OC1CO (stereo not given)
TGI (UO-31 renal): > 10 µM
TGI (SK-OV-3 ovarian): > 10 µM
TGI (ACHN renal): > 10 µM
TGI (IGROV1 ovarian): > 10 µM
TGI (CAKI-1 renal): > 10 µM
TGI (RPMI-8226 leukemia): > 10 µM
TGI (HCC-2998 colon): > 10 µM
TGI (SR leukemia): > 10 µM
TGI (SK-MEL-28 melanoma): > 10 µM
TGI (U251 CNS): > 10 µM

OC(O)(C(F)(F)F)C(F)(F)F
TGI (UO-31 renal): > 100 µM
TGI (SK-OV-3 ovarian): > 100 µM
TGI (ACHN renal): > 100 µM
TGI (IGROV1 ovarian): > 100 µM
TGI (CAKI-1 renal): > 100 µM
TGI (RPMI-8226 leukemia): > 100 µM
TGI (HCC-2998 colon): > 100 µM
TGI (SR leukemia): > 100 µM
TGI (SK-MEL-28 melanoma): > 100 µM
TGI (U251 CNS): > 100 µM
